Calls of active or inactive are those of the source.
How the values were obtained:
[1] = molecular target: T1, Replicative DNA helicase DnaB (Mycobacterium tuberculosis, UniProt P9WMR3); experiment: DnaB intein splicing inhibitors, dose response, biochemical, cell-free fluorescence (AID 449749); format: functional
T1 sequence (P9WMR3 whole entry): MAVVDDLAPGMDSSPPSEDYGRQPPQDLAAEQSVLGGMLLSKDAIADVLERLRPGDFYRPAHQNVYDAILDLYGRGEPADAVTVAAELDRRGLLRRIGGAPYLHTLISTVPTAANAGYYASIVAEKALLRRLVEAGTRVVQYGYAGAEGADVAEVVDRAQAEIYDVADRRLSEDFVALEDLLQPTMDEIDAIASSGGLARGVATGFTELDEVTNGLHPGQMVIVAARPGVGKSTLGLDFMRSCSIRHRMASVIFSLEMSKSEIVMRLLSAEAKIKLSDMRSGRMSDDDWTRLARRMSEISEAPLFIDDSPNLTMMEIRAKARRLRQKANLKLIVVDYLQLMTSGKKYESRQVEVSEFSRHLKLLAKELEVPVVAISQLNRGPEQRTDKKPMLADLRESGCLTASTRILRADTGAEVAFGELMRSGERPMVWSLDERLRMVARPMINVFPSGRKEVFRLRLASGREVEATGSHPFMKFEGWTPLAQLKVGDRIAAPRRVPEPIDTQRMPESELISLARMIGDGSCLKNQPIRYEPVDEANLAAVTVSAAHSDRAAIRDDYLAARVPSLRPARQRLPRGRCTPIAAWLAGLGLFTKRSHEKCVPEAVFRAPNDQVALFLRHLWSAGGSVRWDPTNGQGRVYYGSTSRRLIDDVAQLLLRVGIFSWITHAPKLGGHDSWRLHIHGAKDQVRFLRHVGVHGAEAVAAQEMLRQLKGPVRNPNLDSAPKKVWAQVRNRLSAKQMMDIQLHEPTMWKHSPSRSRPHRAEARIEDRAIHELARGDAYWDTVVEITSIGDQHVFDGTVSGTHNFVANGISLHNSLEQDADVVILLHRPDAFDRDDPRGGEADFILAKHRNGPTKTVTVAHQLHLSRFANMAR

[2] = tested on: Streptococcus sp. 'group A'; experiment: Streptococcus pyogenes SK(-)GAS viability under kanamycin – luminescence, BacTiterGlo, confirmation, counter-screen for streptokinase expression inhibitor project, dose response (AID 1900); format: functional, organism-based
Streptococcus = experiment: GAS UMAA2166 growth inhibition – luminescence, BacTiterGlo, counter-screen for streptokinase expression inhibitor project, dose response (AID 1915); format: functional, organism-based;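 further: potency for reduction of bacterial viability or growth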
Protein RecA = molecular target: T2, Protein RecA (Mycobacterium tuberculosis, UniProt P9WHJ3); experiment: Fluorescence Cell-Free Homogeneous Dose Retest to Identify Inhibitors of RecA-Intein Splicing Activity. [Related pubchem assays (depositor defined):AID2097, AID2223, AID489010, AID492950]; format: functional
T2 sequence (P9WHJ3 whole entry): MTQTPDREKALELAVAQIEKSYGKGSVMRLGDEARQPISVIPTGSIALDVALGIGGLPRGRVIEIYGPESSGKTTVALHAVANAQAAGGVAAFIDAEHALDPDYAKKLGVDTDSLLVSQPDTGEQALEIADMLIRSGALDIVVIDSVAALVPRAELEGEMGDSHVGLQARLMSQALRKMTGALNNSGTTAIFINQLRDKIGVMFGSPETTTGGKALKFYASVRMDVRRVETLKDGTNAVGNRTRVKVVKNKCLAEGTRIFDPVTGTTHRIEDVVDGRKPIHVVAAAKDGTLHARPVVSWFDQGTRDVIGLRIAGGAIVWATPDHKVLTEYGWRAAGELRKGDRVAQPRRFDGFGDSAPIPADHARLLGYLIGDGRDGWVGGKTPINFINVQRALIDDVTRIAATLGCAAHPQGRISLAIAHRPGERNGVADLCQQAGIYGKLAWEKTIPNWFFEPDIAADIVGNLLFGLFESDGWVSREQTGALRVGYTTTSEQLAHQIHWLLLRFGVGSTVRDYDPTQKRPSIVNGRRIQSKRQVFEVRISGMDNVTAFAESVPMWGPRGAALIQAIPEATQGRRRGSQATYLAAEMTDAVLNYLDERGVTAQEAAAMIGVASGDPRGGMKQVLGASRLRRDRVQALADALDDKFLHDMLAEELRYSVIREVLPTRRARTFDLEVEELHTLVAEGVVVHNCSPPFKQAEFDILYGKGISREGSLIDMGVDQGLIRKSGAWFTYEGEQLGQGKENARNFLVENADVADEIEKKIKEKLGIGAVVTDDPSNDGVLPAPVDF

[3] = molecular target: G-protein coupled receptor 55 (Homo sapiens, UniProt Q9Y2T6); experiment: inhibition of LPI-stimulated GPR55 beta-arrestin translocation – imaging, U2OS, beta-arrestin-GFP, LPI agonist, primary screen (AID 2013); format: functional;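 further: antagonist potency measured as reduced agonist-driven arrestin aggregation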
[4] = viability of uninfected HEp-2 cells – cell-based, HTS, cytotoxicity control for RSV inhibitor project, dose response (AID 2410); format: functional; conditions: human respiratory syncytial virus
Streptokinase A = molecular target: T3, Streptokinase A (Streptococcus pyogenes serotype M1, UniProt P10520); experiment: viability-normalized secreted streptokinase activity reduction – plasminogen activation absorbance, OD405, dose response (AID 1914); format: functional, Streptococcus pyogenes M1 GAS;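 further: secreted streptokinase activity via plasminogen activation per viability signal from cell pellet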
T3 sequence (P10520 whole entry): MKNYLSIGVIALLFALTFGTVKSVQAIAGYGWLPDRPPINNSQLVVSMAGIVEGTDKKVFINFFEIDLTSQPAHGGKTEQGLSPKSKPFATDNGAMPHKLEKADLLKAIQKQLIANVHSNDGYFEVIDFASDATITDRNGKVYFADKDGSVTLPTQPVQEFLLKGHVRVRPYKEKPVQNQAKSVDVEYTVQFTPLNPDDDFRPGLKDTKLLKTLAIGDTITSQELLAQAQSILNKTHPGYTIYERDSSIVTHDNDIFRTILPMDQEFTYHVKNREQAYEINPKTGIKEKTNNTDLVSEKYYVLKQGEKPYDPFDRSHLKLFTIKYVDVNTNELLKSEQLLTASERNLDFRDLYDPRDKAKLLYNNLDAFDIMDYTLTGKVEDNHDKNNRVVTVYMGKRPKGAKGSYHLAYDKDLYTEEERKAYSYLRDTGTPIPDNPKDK

[5] = luciferase reporter signal reduction – luminescence, H4-C neuroglioblastoma cells, dose response (AID 2458); format: functional, cell-based;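 further: H4 neuroglioblastoma cells stably carrying a luciferase reporter gene fusion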
[6] = HEK-293T viability loss after treatment – luminescence, T-cell screen hits, cytotoxicity control for TCR NF-kB inhibitor project, dose response (AID 489026); format: functional, cell-based;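 further: cells exposed to compound about 14 hours before the viability readout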
[7] = alpha-synuclein stem-loop translation blockers – luminescence, H4 neuroglioblastoma cells, dose confirmation, confirmation (AID 2454); format: functional, cell-based;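 further: H4 neuroglioblastoma cells carrying an alpha-synuclein 5'UTR luciferase reporter; potency for inhibition of the luciferase signal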
[8] = molecular target: Eukaryotic translation initiation factor 4H (Homo sapiens, UniProt Q15056); experiment: inhibitors of translation initiation factor eIF4H – SAR follow-up (AID 435011); format: functional
[9] = alpha-synuclein stem-loop luciferase translation blockers – H4 neuroglioma cells, luminescence, confirmation (AID 1988); format: functional, cell-based
[10] = Luminescence Cell-Based Dose Response HTS to Identify Inhibitors of 5'UTR Stem-Loop Driven Prion Protein mRNA Translation in H4 Neuroglioblastoma Cells. [Related pubchem assays: 1827 (Project Summary), 1813 (Primary HTS)]; format: functional
cells = format: functional, cell-based
[11] = luciferase reporter signal suppression in cells – H4 neuroglioma cells, luminescence, dose response (AID 1990); format: functional, cell-based
[12] = molecular target: Intestinal-type alkaline phosphatase (Homo sapiens, UniProt P09923); experiment: Dose Response confirmation of uHTS hits from a small molecule inhibitors of human intestinal alkaline phosphatase via a luminescent assay. [Related pubchem assays (depositor defined):AID2544, AID2574]; format: functional
H9c2 = experiment: cells; format: functional, cell-based; conditions: Rattus norvegicus, H9c2, Myocardium;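 further: confirmatory concentration-response retest of ultra-high-throughput screening hits for modulation of myocardial damage; cell death induced by hydrogen peroxide oxidative stress; compound pretreatment for 60 min then peroxide exposure for 2 h; potency is for protecting the cells against peroxide damage rather than for killing them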
Phosphomannomutase 2 = Phosphomannomutase 2 (Homo sapiens, UniProt O15305); experiment: Counter screen SAR assay for PMM2 inhibitors via a fluorescence intensity assay. [Related pubchem assays (depositor defined):AID1545, AID1574]
[13] = molecular target: T4, Mannose-6-phosphate isomerase (Homo sapiens, UniProt P34949); experiment: phosphomannose isomerase inhibition – biochemical, fluorescence intensity, confirmation (AID 1535)
T4 sequence (P34949 whole entry): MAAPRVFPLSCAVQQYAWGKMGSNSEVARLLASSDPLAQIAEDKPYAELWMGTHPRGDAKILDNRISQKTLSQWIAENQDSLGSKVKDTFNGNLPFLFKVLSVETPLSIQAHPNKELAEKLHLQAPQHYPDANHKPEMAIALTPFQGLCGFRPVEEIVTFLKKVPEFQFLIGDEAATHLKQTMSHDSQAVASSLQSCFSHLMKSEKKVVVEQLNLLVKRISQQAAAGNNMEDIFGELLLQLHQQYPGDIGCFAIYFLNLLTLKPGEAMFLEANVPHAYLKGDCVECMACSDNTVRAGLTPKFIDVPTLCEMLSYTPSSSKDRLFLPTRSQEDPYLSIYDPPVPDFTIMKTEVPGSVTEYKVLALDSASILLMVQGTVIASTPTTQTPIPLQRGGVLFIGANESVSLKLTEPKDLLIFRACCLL

[14] = molecular target: Kappa-type opioid receptor (Homo sapiens, UniProt P41145); experiment: SAR analysis of small molecule agonists of the kappa opioid receptor via a luminescent beta-arrestin assay - Set 3. [Related pubchem assays (depositor defined):AID1777, AID1785, AID1786, AID1966, AID2133, AID2136, AID2284, AID2500]; format: functional
[15] = molecular target: Delta-type opioid receptor (Homo sapiens, UniProt P41143); experiment: SAR Analysis of Agonists of the DOR Receptor using an Image-Based Assay - Set 3. [Related pubchem assays (depositor defined):AID1777, AID1786]; format: functional
Mu-type opioid receptor = Mu-type opioid receptor (Homo sapiens, UniProt P35372); experiment: SAR Analysis of Agonists of the MOR Receptor using an Image-Based Assay - Set 3. [Related pubchem assays (depositor defined):AID1777, AID1785, AID1786, AID1966, AID2133, AID2136, AID2284, AID2285, AID2352]; format: functional
[16] = Fluorescence-based cell-based high throughput dose response assay for inhibitors of the interaction of nucleotide-binding oligomerization domain containing 2 (NOD2) and the receptor-interacting serine-threonine kinase 2 (RIPK2).; format: functional; conditions: Homo sapiens
Hexokinase = Hexokinase (Trypanosoma brucei, UniProt Q38C41); experiment: Confirmation assay for inhibitors of Trypanosoma brucei hexokinase 1-Analogue-first series. [Related pubchem assays (depositor defined):AID1430, AID1632, AID2516, AID2560, AID2579, AID2600, AID449725, AID492951]; format: functional
[17] = molecular target: Glucose-6-phosphate 1-dehydrogenase (Homo sapiens, UniProt P11413); experiment: inhibition of Homo sapiens G6PD, dose series – biochemical, fluorescence, selectivity assay for P. falciparum G6PD inhibitor project, dose response (AID 504792); format: functional
[18] = molecular target: Voltage-dependent T-type calcium channel subunit alpha-1H (Homo sapiens, UniProt O95180); experiment: human CACNA1H calcium influx blockade – cell-based, synthetic library set 1, calcium flux (AID 493022); format: functional
[19] = molecular target: Alkaline phosphatase, placental type (Homo sapiens, UniProt P05187); experiment: human placental alkaline phosphatase inhibition – biochemical, luminescence, confirmation (AID 1512); format: functional
[20] = molecular target: T5, Alkaline phosphatase, tissue-nonspecific isozyme (Homo sapiens, UniProt P05186); experiment: potency against alkaline phosphatase TNAP – biochemical, luminescent, dose response, SAR follow-up (AID 1056)
T5 sequence (P05186 whole entry): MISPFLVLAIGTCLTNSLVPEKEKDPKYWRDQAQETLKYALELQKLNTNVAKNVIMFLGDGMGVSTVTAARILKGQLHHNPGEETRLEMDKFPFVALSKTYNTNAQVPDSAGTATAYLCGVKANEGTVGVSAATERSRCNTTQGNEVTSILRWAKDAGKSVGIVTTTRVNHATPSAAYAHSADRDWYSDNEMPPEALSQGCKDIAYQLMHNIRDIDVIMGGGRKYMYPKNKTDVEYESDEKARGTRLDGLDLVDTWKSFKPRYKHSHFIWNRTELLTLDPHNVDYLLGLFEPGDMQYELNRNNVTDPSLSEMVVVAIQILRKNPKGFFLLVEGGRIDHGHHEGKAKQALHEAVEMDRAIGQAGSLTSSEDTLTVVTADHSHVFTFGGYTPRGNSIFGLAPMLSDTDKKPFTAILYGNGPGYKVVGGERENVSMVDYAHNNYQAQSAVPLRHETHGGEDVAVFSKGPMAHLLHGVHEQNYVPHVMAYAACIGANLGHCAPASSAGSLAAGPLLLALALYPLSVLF

Mu-type opioid receptor, sequence (P35372 whole entry, the tested form may be a part): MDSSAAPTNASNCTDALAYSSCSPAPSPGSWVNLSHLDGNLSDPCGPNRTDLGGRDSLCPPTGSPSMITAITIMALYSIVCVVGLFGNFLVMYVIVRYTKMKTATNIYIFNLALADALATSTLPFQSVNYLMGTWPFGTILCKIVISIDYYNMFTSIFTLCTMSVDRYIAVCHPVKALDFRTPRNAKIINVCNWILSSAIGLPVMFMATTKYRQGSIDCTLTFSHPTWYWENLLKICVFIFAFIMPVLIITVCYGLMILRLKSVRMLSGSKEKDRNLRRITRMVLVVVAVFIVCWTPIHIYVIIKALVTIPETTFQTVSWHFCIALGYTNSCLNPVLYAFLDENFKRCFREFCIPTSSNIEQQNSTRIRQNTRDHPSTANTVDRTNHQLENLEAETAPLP
Alkaline phosphatase, placental type, sequence (P05187 whole entry): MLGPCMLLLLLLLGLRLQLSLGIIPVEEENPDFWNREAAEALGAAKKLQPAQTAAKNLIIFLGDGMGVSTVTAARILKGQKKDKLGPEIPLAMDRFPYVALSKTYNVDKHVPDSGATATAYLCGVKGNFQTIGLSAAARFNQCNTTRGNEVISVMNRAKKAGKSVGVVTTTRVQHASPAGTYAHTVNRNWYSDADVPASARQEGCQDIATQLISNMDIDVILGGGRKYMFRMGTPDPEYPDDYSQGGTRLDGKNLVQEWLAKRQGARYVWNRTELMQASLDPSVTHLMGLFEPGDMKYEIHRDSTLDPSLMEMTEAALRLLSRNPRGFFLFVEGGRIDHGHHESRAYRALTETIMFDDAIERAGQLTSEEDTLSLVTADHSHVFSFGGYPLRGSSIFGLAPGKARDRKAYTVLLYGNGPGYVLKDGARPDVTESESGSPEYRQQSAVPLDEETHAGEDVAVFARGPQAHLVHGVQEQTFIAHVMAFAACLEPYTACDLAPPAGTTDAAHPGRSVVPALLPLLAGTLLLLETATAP
G-protein coupled receptor 55, sequence (Q9Y2T6 whole entry): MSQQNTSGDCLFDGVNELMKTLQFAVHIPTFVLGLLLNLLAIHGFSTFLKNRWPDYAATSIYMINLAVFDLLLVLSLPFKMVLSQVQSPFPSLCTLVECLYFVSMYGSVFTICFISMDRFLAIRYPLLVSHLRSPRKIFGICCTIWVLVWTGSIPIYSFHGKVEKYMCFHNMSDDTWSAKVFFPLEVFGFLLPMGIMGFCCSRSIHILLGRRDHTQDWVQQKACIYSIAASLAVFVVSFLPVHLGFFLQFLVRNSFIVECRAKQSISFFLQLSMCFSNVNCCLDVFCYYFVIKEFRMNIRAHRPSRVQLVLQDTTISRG
Voltage-dependent T-type calcium channel subunit alpha-1H, sequence (O95180 whole entry): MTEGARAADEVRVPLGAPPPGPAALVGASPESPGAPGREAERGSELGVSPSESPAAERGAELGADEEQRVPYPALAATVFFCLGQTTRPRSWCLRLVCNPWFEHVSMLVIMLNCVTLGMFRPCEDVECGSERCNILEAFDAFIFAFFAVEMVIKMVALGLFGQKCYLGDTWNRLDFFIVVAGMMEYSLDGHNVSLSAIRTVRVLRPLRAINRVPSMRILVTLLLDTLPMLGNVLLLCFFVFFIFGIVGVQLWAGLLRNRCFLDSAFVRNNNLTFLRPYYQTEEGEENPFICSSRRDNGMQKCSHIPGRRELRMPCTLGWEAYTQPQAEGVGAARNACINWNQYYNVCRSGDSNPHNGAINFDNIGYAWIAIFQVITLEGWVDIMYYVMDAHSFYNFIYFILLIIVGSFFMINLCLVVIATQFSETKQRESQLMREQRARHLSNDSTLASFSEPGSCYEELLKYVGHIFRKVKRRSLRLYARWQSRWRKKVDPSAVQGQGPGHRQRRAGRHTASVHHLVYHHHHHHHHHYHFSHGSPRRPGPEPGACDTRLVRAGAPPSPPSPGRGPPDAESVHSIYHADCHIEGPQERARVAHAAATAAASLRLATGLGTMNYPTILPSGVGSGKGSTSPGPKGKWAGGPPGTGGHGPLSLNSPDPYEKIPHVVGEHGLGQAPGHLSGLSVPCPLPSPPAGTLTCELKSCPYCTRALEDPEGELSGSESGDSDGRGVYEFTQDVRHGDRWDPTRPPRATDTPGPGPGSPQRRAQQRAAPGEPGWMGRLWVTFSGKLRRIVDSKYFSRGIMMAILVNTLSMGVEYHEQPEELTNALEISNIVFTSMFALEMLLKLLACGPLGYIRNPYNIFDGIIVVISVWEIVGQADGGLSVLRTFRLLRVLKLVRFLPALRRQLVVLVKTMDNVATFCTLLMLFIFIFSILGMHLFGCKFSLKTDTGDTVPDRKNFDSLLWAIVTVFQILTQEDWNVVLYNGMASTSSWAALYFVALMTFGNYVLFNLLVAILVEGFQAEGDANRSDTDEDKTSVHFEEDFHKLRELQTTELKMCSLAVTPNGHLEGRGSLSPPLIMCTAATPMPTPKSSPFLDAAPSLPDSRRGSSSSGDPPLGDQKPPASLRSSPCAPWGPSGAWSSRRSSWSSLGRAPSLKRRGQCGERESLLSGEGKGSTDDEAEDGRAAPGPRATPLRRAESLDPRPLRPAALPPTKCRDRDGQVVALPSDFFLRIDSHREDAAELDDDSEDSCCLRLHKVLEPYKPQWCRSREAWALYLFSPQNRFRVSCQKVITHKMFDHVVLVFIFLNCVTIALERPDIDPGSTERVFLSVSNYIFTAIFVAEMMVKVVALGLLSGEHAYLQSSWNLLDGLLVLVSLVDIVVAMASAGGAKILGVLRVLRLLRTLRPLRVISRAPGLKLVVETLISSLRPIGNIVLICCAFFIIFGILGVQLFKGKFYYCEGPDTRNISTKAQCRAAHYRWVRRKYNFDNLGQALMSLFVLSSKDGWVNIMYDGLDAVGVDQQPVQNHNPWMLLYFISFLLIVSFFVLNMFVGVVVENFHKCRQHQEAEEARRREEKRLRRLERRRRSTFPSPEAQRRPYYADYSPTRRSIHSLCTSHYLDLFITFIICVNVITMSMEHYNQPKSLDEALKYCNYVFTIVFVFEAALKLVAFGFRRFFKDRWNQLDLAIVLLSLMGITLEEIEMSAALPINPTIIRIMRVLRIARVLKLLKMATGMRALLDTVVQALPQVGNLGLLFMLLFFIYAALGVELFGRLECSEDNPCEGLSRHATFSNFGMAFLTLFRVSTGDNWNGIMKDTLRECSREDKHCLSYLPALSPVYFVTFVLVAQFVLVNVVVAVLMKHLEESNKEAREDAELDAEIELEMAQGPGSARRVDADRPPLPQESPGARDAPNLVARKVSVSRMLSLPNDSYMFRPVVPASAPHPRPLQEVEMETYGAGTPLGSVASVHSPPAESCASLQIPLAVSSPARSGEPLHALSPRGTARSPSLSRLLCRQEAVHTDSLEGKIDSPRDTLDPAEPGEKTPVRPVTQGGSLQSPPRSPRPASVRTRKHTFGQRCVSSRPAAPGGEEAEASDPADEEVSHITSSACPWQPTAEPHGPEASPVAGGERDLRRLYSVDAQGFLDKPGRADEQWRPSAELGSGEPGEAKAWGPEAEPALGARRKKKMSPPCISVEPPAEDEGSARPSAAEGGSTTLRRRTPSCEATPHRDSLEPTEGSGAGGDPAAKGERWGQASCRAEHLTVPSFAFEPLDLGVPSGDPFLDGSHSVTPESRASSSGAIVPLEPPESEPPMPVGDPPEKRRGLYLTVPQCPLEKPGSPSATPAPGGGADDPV
Intestinal-type alkaline phosphatase, sequence (P09923 whole entry): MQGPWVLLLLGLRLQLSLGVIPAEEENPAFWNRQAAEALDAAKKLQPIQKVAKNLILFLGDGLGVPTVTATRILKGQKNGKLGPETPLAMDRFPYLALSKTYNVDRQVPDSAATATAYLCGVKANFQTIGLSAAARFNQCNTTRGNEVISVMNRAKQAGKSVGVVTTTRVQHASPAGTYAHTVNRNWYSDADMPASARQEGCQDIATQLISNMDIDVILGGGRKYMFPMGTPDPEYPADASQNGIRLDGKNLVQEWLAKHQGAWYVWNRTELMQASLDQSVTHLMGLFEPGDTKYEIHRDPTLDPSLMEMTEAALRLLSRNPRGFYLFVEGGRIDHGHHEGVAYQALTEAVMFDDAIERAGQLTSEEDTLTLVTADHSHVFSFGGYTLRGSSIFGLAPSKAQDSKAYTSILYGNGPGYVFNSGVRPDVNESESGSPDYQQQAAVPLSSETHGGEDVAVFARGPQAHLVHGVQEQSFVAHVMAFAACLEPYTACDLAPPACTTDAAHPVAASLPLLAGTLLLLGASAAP
Hexokinase, sequence (Q38C41 whole entry): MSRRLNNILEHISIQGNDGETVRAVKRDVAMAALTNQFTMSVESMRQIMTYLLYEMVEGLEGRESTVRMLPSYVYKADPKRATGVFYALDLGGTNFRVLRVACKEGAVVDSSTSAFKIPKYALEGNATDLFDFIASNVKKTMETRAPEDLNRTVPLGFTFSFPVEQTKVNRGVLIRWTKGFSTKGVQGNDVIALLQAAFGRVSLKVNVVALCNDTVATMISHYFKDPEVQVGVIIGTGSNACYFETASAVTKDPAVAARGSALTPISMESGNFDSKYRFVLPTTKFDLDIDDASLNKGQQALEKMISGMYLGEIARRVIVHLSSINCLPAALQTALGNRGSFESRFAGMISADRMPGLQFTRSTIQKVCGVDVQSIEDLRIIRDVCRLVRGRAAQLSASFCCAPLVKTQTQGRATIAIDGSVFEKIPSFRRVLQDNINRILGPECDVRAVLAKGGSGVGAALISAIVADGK
Delta-type opioid receptor, sequence (P41143 whole entry): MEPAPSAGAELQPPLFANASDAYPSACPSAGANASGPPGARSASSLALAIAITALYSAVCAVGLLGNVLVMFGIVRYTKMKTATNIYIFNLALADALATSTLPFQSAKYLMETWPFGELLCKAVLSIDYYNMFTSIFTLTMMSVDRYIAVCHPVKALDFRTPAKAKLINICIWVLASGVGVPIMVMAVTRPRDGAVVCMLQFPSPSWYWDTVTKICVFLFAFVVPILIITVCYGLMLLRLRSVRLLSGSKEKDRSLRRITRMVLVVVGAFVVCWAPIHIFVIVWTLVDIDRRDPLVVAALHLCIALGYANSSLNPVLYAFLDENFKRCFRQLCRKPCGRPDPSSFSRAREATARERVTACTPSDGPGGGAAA

c1ccc(-c2nc(N3CCCCCC3)nc(-n3ccnc3)n2)cc1
AC50 [1]: 63.8 µM (active)
EC50 [2]: 4.08 µM (active)
EC50 (Streptococcus): 7.9 µM (active)
EC50 (Protein RecA): > 380 µM (inactive)
IC50 [3]: 3.77 µM (active)
CC50 [4]: 20.1 µM (active)
EC50 (Streptokinase A): > 150 µM (not active)

Cc1ccc(N2C(=O)c3cccc4c(N)ccc(c34)C2=O)c2cccnc12
EC50 [5]: 0.111 µM (active)
IC50 [6]: > 80 µM (inactive)
EC50 [7]: 0.124 µM (active)
IC50 [8]: > 100 µM (inactive)
EC50 [9]: < 0.1 µM (active)
EC50 [10]: < 0.1 µM (active)
EC50 (cells): 0.101 µM (active)
EC50 [11]: < 0.1 µM (active)

CC(=O)CCc1ccc(Oc2nc(-c3cccnc3)nc3ccccc23)cc1
IC50 [12]: > 100 µM (inactive)
IC50 (H9c2): > 79 µM (inactive)

Clc1nss/c1=N\C1CCC1
IC50 (Phosphomannomutase 2): 76.3 µM (active)
IC50 [13]: 15.6 µM (active)

Cc1ccccc1CSc1nnc(-c2ccccn2)n1Cc1cccs1
EC50 [14]: 14.7 µM (inactive)
EC50 [15]: > 32 µM (inactive)
EC50 (Mu-type opioid receptor): > 32 µM (inactive)

O=C(Cn1sc2ccccc2c1=O)Nc1ccc(Br)cc1
IC50 [16]: 10.2 µM (inactive)
IC50 (Hexokinase): > 25 µM (inactive)
IC50 [17]: 24.2 µM (inactive)

O=C(COc1ccc(F)cc1Cl)Nc1nnc(-c2ccc3c(c2)CCCC3)o1
EC50 [18]: 10 µM (active)

O=c1c2[nH]c3ccc(F)cc3c2ncn1CCc1ccc(O)c(O)c1
IC50 [19]: 1.04 µM (active)
IC50 [20]: 0.253 µM (active)

— ChEMBL document CHEMBL1201862, “PubChem BioAssay data set” (2004)
